The record followed here is patent publication US20100105864A1, “PROPHYLACTIC OR THERAPEUTIC AGENT FOR DIARRHEA” (priority 2007, published 2010).

Marks after values point to notes of the source that are not given here.

In one test the test system is Balb/c mice. Nature of the test: Anticancer agent (5-FU)-induced diarrhea model. It counts as in vivo. The method, then:
To each of Balb/c mice, an anticancer agent was administered to induce diarrhea, and γ-Glu-Val-Gly (hereinafter, referred to as “γEVG”) was studied for its inhibitory effect on diarrhea. To each of 6-week-old Balb/c mice fed with a low protein nutrient diet (4% casein diet) for 1 week, 5-FU (1 mg/animal/day) was intraperitoneally administered for consecutive 3 days. The diarrhea developed around Day 5 after the third administration of the anticancer agent, and the diarrhea appeared in all cases on Day 7. The presence or absence of diarrhea was determined based on the presence or absence of the stool in the tail head area. As the statistical test, a chi-square (χ^2) test for the control group (presence or absence of diarrhea) was employed, and p<0.05 was regarded as significant.
Each administration of 0.01% γEVG was started in free water intake at the same time as the first administration of the anticancer agent, and continued until completion of the experiment.
To each of Balb/c mice, an anticancer agent was administered to induce diarrhea, and a calcium receptor activator (hereinafter, referred to as “CaSR agonist”) was studied for its inhibitory effect on diarrhea. To each of 6-week-old Balb/c mice fed with a low protein nutrient diet (4% casein diet) for 1 week, 5-FU (1 mg/animal/day) was intraperitoneally administered for consecutive 3 days. The diarrhea developed around Day 5 after the third administration of the anticancer agent, and the diarrhea appeared in all cases on Day 7. The presence or absence of diarrhea was determined based on the presence or absence of the stool in the tail head area. As the statistical test, a chi-square (χ^2) test for the control group (presence or absence of diarrhea) was employed, and p<0.05 was regarded as significant.
The administration of the CaSR agonist was started in free water intake at the same time as the administration of the low protein nutrient diet, and continued until completion of the experiment.

For another test, the system named is rat large intestine loop. Nature of the test: Fluid absorption in rat large intestine loop method (PGE2-stimulated). It counts as in vivo, rats. Conditions: injected into loop 30 minutes after PGE2 i.p.; measured after 1 hour. The method, then:
The cecum and large intestine were extirpated from the abdomen of each of male SD (IGS) rats under pentobarbital anesthesia, and the site 5 cm away from the area just under the cecum was ligated to form a large intestine loop Immediately after the loop had been formed, PGE2 (4 μg/ml/kg, SIGMA) was intraperitoneally administered, and after 30 minutes, a medicament, which had been dissolved in 2 ml of Tyrode's solution (NaCl: 136.9 mM, KCl: 2.7 mM, CaCl2.2H2O: 1.8 mM, MgCl2.6H2O: 1.04 mM, NaH2PO4.2H2O: 0.04 mM, NaH2PO4.2H2O: 0.04 mM, glucose: 5.55 mM, NaHCO3: 11.9 mM), was injected into the prepared loop (the medicament solution was adjusted so that the pH would be 6.5 to 7.5). As a control, Tyrode's solution free of any medicament (vehicle) was administered. After 1 hour, the loop weight, the loop weight after solution removal, and the loop area were measured to calculate a solution weight per unit area remaining in the loop.
The remaining solution amount per unit area was calculated with the following equation:
Remaining solution amount per unit area(g/cm^2)=(Loop weight−Loop weight after solution removal)/Loop area.
The fluid absorption was evaluated by calculating an inhibitory rate from the following equation:
Inhibitory rate(%)=100−(Remaining solution amount per unit area under drug administration−Remaining solution amount per unit area in base(average))/(Remaining solution amount per unit area under vehicle administration(average)−Remaining solution amount per unit area in base(average))×100.
(Base=case where no stimulation is given (no treatment with PGE2))

As to `N[C@@H](CCC(=O)N[C@@H](CS)C(=O)NCC(=O)O)C(=O)O` [γ-Glu-Cys-Gly], the “mice that did not exhibit the diarrhea symptom” value in the test with Balb/c mice (0.5% administration group, free water intake from start of low protein diet, control all 9/9 with diarrhea) is recorded as 2 out of 5. For the same compound, the “Ratio of individuals that developed diarrhea” value in the test with Balb/c mice (0.5% in free water intake from start of low protein diet, control 9/9, p < 0.05 chi-square) is 3/5*. Also, the “fluid absorption (inhibitory rate from remaining solution amount per unit area)” value in the test with rat large intestine loop was “promoted fluid absorption”.
